# Results taken from US11110067B2 (THE BOARD OF REGENTS OF THE UNIVERSITY OF TEXAS SYSTEM, priority 2008, dated 2021).
# What was measured:
# [1] = system: genetically heterogeneous mice; test: Lifespan of mice fed test agents in the diet (Cohort 2005; rapamycin from 600 days of age); settings: for Survival compared with controls: added to the diet at 4 months of age, enalapril 120 mg/kg food, CAPE 30 or 300 mg/kg food; for Effect size expressed as life expectancy at 600 days / Effect size expressed as mean lifespan: pooled data set
# Text: Mice were produced at each of the three test sites by mating CB6F1 females with C3D2F1 males to produce a genetically heterogeneous population. […] Each test site enrolled approximately equal numbers of 19-21 day-old weanlings each month over a six month period, housing 3 males or 4 females/cage. Each site used diets that the manufacturer claimed were based on the NIH-31 standard for breeding cages and the period between weaning and the initiation of experimental diets, as follows: For breeding cages, UM used Purina 5008, UT used Teklad 7912, and TJL used Purina 5K52. For weanlings prior to 4 months of age, UM used Purina 5008, UT used Teklad 7912, and TJL used Purina 5LG6. Starting when 4 months old, mice in the Control, Enalapril, and CAPE groups received Purina 5LG6 at all three sites, without additives (control group) or with the test agent. […] The principal endpoint was age at death (for mice found dead at daily inspections) or age at euthanasia (for mice deemed unlikely to survive for more than an additional 48 h).
# The Cohort 2005 study population, distributed almost equally among the three test sites, consisted initially of 1960 mice, of which 674 were assigned to the control group and 317 to 328 to each of the four treatment groups. Of these, 51 mice were removed from the study because of fighting (31 mice), accidental death (such as chip implantation or cage flooding; 13 mice), or because of technical error (error in gender assignment or diet selection; 7 mice). For survival analyses, mice were treated as alive at the date of their removal from the protocol, and lost to follow-up thereafter. These censored mice were not included in calculations of median longevity.
# Mice were examined at least daily for signs of ill health, and were euthanized for humane reasons if they were so severely moribund that they were considered, by an experienced technician, unlikely to survive for more than an additional 48 hrs. […] The age at which a moribund mouse was euthanized was taken as the best available estimate of its natural lifespan. Mice found dead were also noted at each daily inspection.
# TestDiet, Inc. (Richmond, Ind.) prepared batches of Purina 5LG6 food containing each of the test substances, as well as control diet batches, at intervals of approximately 120 days, and shipped each batch of food at the same time to each of the three test sites. Enalapril was purchased from Sigma (catalogue E6888-5G) and used at 120 mg per kg food; on the assumption that the average mouse weighs 30 gm and consumes 5 gm of food/day, this dose supplies 20 mg enalapril per kg body weight/day. CAPE, i.e. caffeic acid phenethyl ester, was purchased from Cayman (Ann Arbor, Mich.; Catalogue 70750), and used at either of two doses: the high dose was 300 mg/kg food (50 mg/kg body weight/day), and the low dose was 30 mg/kg food (5 mg/kg body weight/day).
# [2] = system: HET3 mice; test: Glucose tolerance on high fat diet; assay type: in vivo, mouse; settings: HET3 mice fed a high fat diet
# [3] = system: Aβ / APP in brains of 3×Tg-AD mice; test: APP Western blots, Aβ ELISA and immunohistochemistry in brain, 3xTg-AD mice; assay type: in vivo, mouse; settings: ELISA
# Method: (§1) Tissue was processed and analyzed as described previously 13, 25, 26 and is described in detail in Supplementary Information. Aβ and tau were measured using specific ELISAs.
# 3×Tg-AD mice were sacrificed by CO2 asphyxiation. The brains were extracted and cut in-half sagitally and tissue was processed as described (Oddo et al., 2008). The hAPP(J20) mice were euthanized by isoflurane overdose. Hemibrains were flash frozen. One hemibrain was homogeneized in liquid N2 while the other was used in immunohistochemical determinations. For Western blot analyses, proteins from both hAPP(J20) and 3×Tg-AD soluble fractions were resolved by SDS/PAGE (Invitrogen, Temecula, Calif.) under reducing conditions and transferred to a nitrocellulose or PVDF membrane. The membrane was incubated in a 5% solution of non-fat milk or in 5% BSA for 1 hour at 20° C. […] Aβ40 and Aβ42 levels were measured from the soluble and insoluble fractions using a sandwich ELISA protocol as described previously (Oddo et al., 2005). Aβ40 and Aβ42 in hAPP(J20) mice were quantitated in guanidine homogenates of Tg hAPP(J20) hemibrains as described (Galvan et al., 2006) using specific ELISA assays (Invitrogen, Carlsbad, Calif.). […]
# [4] = system: phosphorylation of ribosomal protein S6 (Ser240/244), a substrate of S6 kinase 1; test: Immunoblot of rpS6 phosphorylation in tissue lysates; assay type: in vivo, mouse; settings: visceral white adipose tissue; fed from 270 to about 800 days of age
# Method: Signal intensities for each immunoblot were captured using a Kodak Image Station, which were analysed using Kodak 1D image analysis software.
# [5] = Body weight of rapamycin-fed mice; assay type: in vivo, mouse
# [6] = system: Aβ / APP in brains of hAPP(J20) mice; test: APP Western blots and Aβ ELISA in brain, hAPP(J20) mice; assay type: in vivo, mouse
# Method: as §1
# 3×Tg-AD mice were sacrificed by CO2 asphyxiation. The brains were extracted and cut in-half sagitally and tissue was processed as described (Oddo et al., 2008). The hAPP(J20) mice were euthanized by isoflurane overdose. Hemibrains were flash frozen. One hemibrain was homogeneized in liquid N2 while the other was used in immunohistochemical determinations. For Western blot analyses, proteins from both hAPP(J20) and 3×Tg-AD soluble fractions were resolved by SDS/PAGE (Invitrogen, Temecula, Calif.) under reducing conditions and transferred to a nitrocellulose or PVDF membrane. The membrane was incubated in a 5% solution of non-fat milk or in 5% BSA for 1 hour at 20° C. […] Aβ40 and Aβ42 levels were measured from the soluble and insoluble fractions using a sandwich ELISA protocol as described previously (Oddo et al., 2005). Aβ40 and Aβ42 in hAPP(J20) mice were quantitated in guanidine homogenates of Tg hAPP(J20) hemibrains as described (Galvan et al., 2006) using specific ELISA assays (Invitrogen, Carlsbad, Calif.).
# [7] = Pong and Zaleska, 2003; cited from earlier work
structure (smiles),measurement,setting,value
"O=C(/C=C/c1ccc(O)c(O)c1)OCCc1ccccc1 [CAPE, caffeic acid phenethyl ester]",Survival compared with controls,[1],did not differ from controls
CCOC(=O)[C@H](CCc1ccccc1)N[C@@H](C)C(=O)N1CCC[C@H]1C(=O)O [enalapril],Survival compared with controls,[1],did not differ from controls
"CO[C@H]1C[C@@H]2CC[C@@H](C)[C@@](O)(O2)C(=O)C(=O)N2CCCC[C@H]2C(=O)O[C@H]([C@H](C)C[C@@H]2CC[C@@H](O)[C@H](OC)C2)CC(=O)[C@H](C)/C=C(\C)[C@@H](O)[C@@H](OC)C(=O)[C@H](C)C[C@H](C)/C=C/C=C/C=C/1C [rapamycin, (3S,6R,7E,9R,10R,12R,14S,15E,17E,19E,21S,23S,26R,27R,34aS)-9,10,12,13,14,21,22,23,24,25,26,27,32,33,34,34a-hexadecahydro-9,27-dihydroxy-3-[(1R)-2-[(1S,3R,4R)-4-hydroxy-3-methoxycyclohexyl]-1-methylethyl]-10,21-dimethoxy-6,8,12,14,20,26-hexamethyl-23,27-epoxy-3H-pyrido[2,1-c][1,4]oxaazacyclohentria-contine-1,5,11,28,29 (4H,6H,31H)-pentone]",Glucose tolerance,[2],causes glucose intolerance
same,Decrease of soluble Aβ42 levels,[3],32.78±6.68%
same,Reduction of levels of phosphorylated rpS6,[4],4-5 fold
same,Body weight,"[5]; high fat diet, 12 weeks of feeding",No difference
same,Body weight,"[5]; mouse, in vivo",No effect
same,Decrease of soluble Aβ42 levels,[6],52.35±13.14%
same,Increase of life expectancy at 600 days,"[1]; females, TJL",45%
same,Mean lifespan increase,"[1]; females, TJL",15%
same,Percentage increase of age at 90th percentile versus controls,"[1]; females, TJL",17%
same,% Live at the 90th percentile age of the joint distribution,"[1]; females, TJL, age 1167 days",22.9%
same,Number alive at the 90th percentile age,"[1]; females, TJL, age 1167 days",11
same,Number dead at the 90th percentile age,"[1]; females, TJL, age 1167 days",37
same,Increase of life expectancy at 600 days,"[1]; females, UM",48%
same,Mean lifespan increase,"[1]; females, UM",16%
same,Percentage increase of age at 90th percentile versus controls,"[1]; females, UM",14%
same,% Live at the 90th percentile age of the joint distribution,"[1]; females, UM, age 1162 days",27.1%
same,Number alive at the 90th percentile age,"[1]; females, UM, age 1162 days",13
same,Number dead at the 90th percentile age,"[1]; females, UM, age 1162 days",35
same,Increase of life expectancy at 600 days,"[1]; females, UT",22%
same,Mean lifespan increase,"[1]; females, UT",7%
same,Percentage increase of age at 90th percentile versus controls,"[1]; females, UT",8%
same,% Live at the 90th percentile age of the joint distribution,"[1]; females, UT, age 1123 days",14.6%
same,Number alive at the 90th percentile age,"[1]; females, UT, age 1123 days",7
same,Number dead at the 90th percentile age,"[1]; females, UT, age 1123 days",41
same,Percentage increase of age at 90th percentile versus controls,"[1]; females, all sites",14%
same,Effect size expressed as life expectancy at 600 days,[1]; females,38%
same,Effect size expressed as mean lifespan,[1]; females,13%
same,% Live at the 90th percentile age of the joint distribution,"[1]; females, pooled sites",21.5%
same,Number alive at the 90th percentile age,"[1]; females, pooled sites",31
same,Number dead at the 90th percentile age,"[1]; females, pooled sites",113
same,% Live at the 90th percentile age of the joint distribution,"[1]; females, pooled sites, listed as Rapa",21.5%
same,Increase of life expectancy at 600 days,"[1]; males, TJL",16%
same,Mean lifespan increase,"[1]; males, TJL",5%
same,Percentage increase of age at 90th percentile versus controls,"[1]; males, TJL",10%
same,% Live at the 90th percentile age of the joint distribution,"[1]; males, TJL, age 1088 days",19.3%
same,Number alive at the 90th percentile age,"[1]; males, TJL, age 1088 days",11
same,Number dead at the 90th percentile age,"[1]; males, TJL, age 1088 days",46
same,Increase of life expectancy at 600 days,"[1]; males, UM",23%
same,Mean lifespan increase,"[1]; males, UM",8%
same,Percentage increase of age at 90th percentile versus controls,"[1]; males, UM",4%
same,% Live at the 90th percentile age of the joint distribution,"[1]; males, UM, age 1154 days",17.6%
same,Number alive at the 90th percentile age,"[1]; males, UM, age 1154 days",9
same,Number dead at the 90th percentile age,"[1]; males, UM, age 1154 days",42
same,Increase of life expectancy at 600 days,"[1]; males, UT",52%
same,Mean lifespan increase,"[1]; males, UT",15%
same,Percentage increase of age at 90th percentile versus controls,"[1]; males, UT",16%
same,% Live at the 90th percentile age of the joint distribution,"[1]; males, UT, age 1112 days",23.3%
same,Number alive at the 90th percentile age,"[1]; males, UT, age 1112 days",14
same,Number dead at the 90th percentile age,"[1]; males, UT, age 1112 days",48
same,Percentage increase of age at 90th percentile versus controls,"[1]; males, all sites",9%
same,Effect size expressed as life expectancy at 600 days,[1]; males,28%
same,Effect size expressed as mean lifespan,[1]; males,9%
same,% Live at the 90th percentile age of the joint distribution,"[1]; males, pooled sites",20.2%
same,Number alive at the 90th percentile age,"[1]; males, pooled sites",34
same,Number dead at the 90th percentile age,"[1]; males, pooled sites",134
same,% Live at the 90th percentile age of the joint distribution,"[1]; males, pooled sites, listed as Rapa",20.2%
same,Blood brain barrier passage,[7],readily crosses the blood brain barrier
